Laboratory results as given in publication PMC8584349 (International Journal of Molecular Sciences, 2021).

Legend:
Conditions in all cases: 12 h
[1] = tested on: SARS-CoV-2 B.1.1.7 (Alpha) PsV
[2] = tested on: SARS-CoV-2 B.1.351 (Beta) PsV
[3] = tested on: SARS-CoV-2 B.1.617.2 (Delta) PsV
[4] = tested on: SARS-CoV-2 P.1 (Gamma) PsV

CC[C@H](C)[C@H](NC(=O)[C@H](C)NC(=O)[C@H](CCC(=O)O)NC(=O)[C@H](CCC(=O)O)NC(=O)[C@H](CC(C)C)NC(=O)[C@H](CCCCN)NC(=O)[C@H](CCCCN)NC(=O)[C@H](CCSC)NC(=O)[C@H](CCC(=O)O)NC(=O)[C@H](Cc1ccc(O)cc1)NC(=O)[C@H](CCC(=O)O)NC(=O)[C@H](CC(C)C)NC(=O)[C@H](CC(=O)O)NC(=O)[C@H](CC(C)C)NC(=O)[C@H](Cc1ccccc1)NC(=O)[C@@H](NC(=O)[C@@H](NC(=O)[C@H](CC(N)=O)NC(=O)[C@@H](NC(=O)[C@H](CCC(N)=O)NC(=O)[C@H](CC(=O)O)NC(=O)[C@H](CC(C)C)NC(=O)[C@@H](N)CO)[C@@H](C)CC)C(C)C)[C@@H](C)O)C(=O)N[C@@H](CCCCN)C(=O)N[C@@H](CCCCN)C(=O)N[C@@H](CC(C)C)C(=O)N[C@@H](CCC(=O)O)C(=O)N[C@@H](CCC(=O)O)C(=O)N[C@@H](CO)C(=O)N[C@@H](Cc1ccc(O)cc1)C(=O)N[C@H](C(=O)N[C@@H](CC(=O)O)C(=O)N[C@@H](CC(C)C)C(=O)N[C@@H](CCCCN)C(=O)N[C@@H](CCC(=O)O)C(=O)N[C@@H](CC(C)C)C(=O)O)[C@@H](C)CC [EK1]
IC50 [1]: 4610 nM
IC50 [2]: 2290 nM
IC50 [3]: 480 nM
IC50 [4]: 1320 nM
